# Laboratory results reported in US4622317A, “Treatment of skin over androgenicity using compositions containing pregnenolone” (priority 1985, dated 1986).
# How the values were obtained:
# [1] = tested on: skin / body of acne patients; conditions: cited from earlier work; for skin irritation and peeling: topical application
# [2] = tested on: female hamster flank organs; assay: stimulation of female hamster flank organs by topical DHA; type: in vivo; conditions: 12 μg, 60 μg, 120 μg to right side, 7 days/week for 6 weeks, female hamsters
# Text: (§1) The effects of hormones and hormonally active substances on sebaceous glands can also be evaluated using the Syrian hamster flank organs as an animal model. The results of experiments using hamsters are valuable inasmuch as they can provide in vivo confirmation of the in vitro experiments like those described above using rat preputial gland. The flank organs, also called the costovertebral spot or the costovertebral organ, are sebaceous structures located on each flank of the animal. Like the sebaceous glands of the human and the preputial gland of the rat they are androgen dependent (Voigt and Hsia, 1973; Gomez and Frost, 1969; Frost and Gomez, 1973).
# The organ in the mature male hamster measures approximately 8 mm in diameter, is heavily pigmented and is covered with coarse dark hairs (Voigt and Hsia, 1973). The organ of the female animal is undeveloped, measuring about 2 mm in diameter, lightly pigmented, without dark hairs, and is at times difficult to see. The anatomical and histological changes in this organ in response to androgens have been described by Hamilton and Montagna (1950).
# Before testing the anti-androgenic properties of pregnenolone on hamster flank organs and relying on the results, a centrally important question therefore needed to be answered--Could DHA be shown to stimulate growth in the flank organs? […]
# [3] = background statement; cited from earlier work
# skin = conditions: studies by the inventor and other laboratories; cited from earlier work
# [4] = tested on: flank organ of female hamsters; conditions: topical, 5 days/week for 2 weeks; cited from earlier work
# [5] = tested on: 3β-hydroxysteroid dehydrogenase Δ^4-5 -isomerase (3βHSD); assay: in vitro inhibition of 3βHSD conversion of DHA in rat preputial gland homogenate; type: biochemical, rat (female Sprague-Dawley); conditions: rat preputial gland homogenate (2 mg protein), 1,2-^3 H-DHA + 100 nmoles DHA, 37° C.; four separate incubations; inhibitor concentration not given
# Experimental: To assess the androgen inhibiting activity of pregnenolone, rat preputial gland was employed to investigate the in vitro androgenic action of DHA. […] A pair of the glands are situated in the prepuce of the rat of either sex weighing between 125-200 mg in an average 200 g rat, being slightly larger in the male animal. The animals employed were female Sprague-Dawley rats, 10-12 weeks old and weighing 225-300 g.
# The experimental format, stated broadly, was to excise preputial glands from rats and prepare a homogenate therefrom. […] The metabolites were quantitated by removal from the thin layer plate and counting in a scintillation counter. By determining the extent of metabolite formation, the extent of inhibition of 3βHSD could be correspondingly determined. […]
# Experiments were initially conducted to ensure that DHA and its metabolites could be separated chromatographically. […] The position of the steroid can be readily traced with this method. […] Elution and quantitative evaluation of steroids can be effected after removal of the iodine. […] For quantitation the plates were then scraped in 1 cm sections for radioassay of ^3 H in a Packard Tri-Carb liquid scintillation counter. Silica gel H blanks and ^3 H-standards (Packard Instrument Co.) were also counted. […]
# [6] = tested on: 3βHSD (female hamster flank organs); assay: in vivo inhibition of conversion of 1,2-^3 H-DHA to metabolites in flank organs of female hamsters; parameters: species or system female Syrian Golden Hamster; conditions: topical 1200 μg/0.1 ml acetone to each flank organ for 3 days
# Text: as §1
# Hamster flank organs were accordingly used to test in vivo the androgenic inhibitory properties of pregnenolone.
# Female Syrian Golden Hamsters were used in this experiment. […]
# On the afternoon of day 3, an intracardial injection of 1,2-^3 H-DHA (5μCi/0.1 ml saline buffer solution) was given to both experimental groups anesthetized with ether. […] Each organ was then placed in a 16 mm×150 mm test tube containing methanol and was homogenized, extracted and analyzed for steroid metabolites by separating the metabolites using thin layer chromatography as described above, scraping the thus separated metabolites from the thin layer plates, and quantitating using a scintillation counter. […]
# Results are shown in FIG. 2 expressed as DPM/mg tissue.
# acne vulgaris = type: in vivo, human
# Experimental: The following experiment was conducted and is a typical trial. In a double-blind clinical trial 23 patients with acne vulgaris volunteered to participate. Fifteen patients (11 females and 4 males) were given a 1% solution of pregnenolone dissolved in isopropanol containing 1% glycerol, and 8 patients (5 females and 3 males) were given a 1% solution of glycerol in isopropanol. Neither the patients nor the attending dermatologist knew whether or not the dispensed solution contained pregnenolone. The patients were instructed to stop using their previous medications for two weeks and then to apply the given solution to their faces twice daily. They were reexamined biweekly.
# [7] = solubility of pregnenolone; type: physicochemical
# [8] = 1% pregnenolone in isopropanol containing 1% glycerol, twice daily, twelve weeks, 4 of 15 patients
compound,measurement,setting,value
"CC1=C(/C=C/C(C)=C/C=C/C(C)=C\C(=O)O)C(C)(C)CCC1 [Accutane, 13-Cis retinoic acid]",blood lipids and liver toxicity,[1]; internal use,alters blood lipids and causes liver toxicity
"C[C@]12CC[C@H](O)CC1=CC[C@@H]1[C@@H]2CC[C@]2(C)C(=O)CC[C@@H]12 [DHA, dehydroepiandrosterone]",stimulation of flank organs,[2],"not only a local stimulation, but stimulation of both flank organs, hence systemic stimulation"
same,androgenic / hormonal activity,[3],only weak androgenic activity
same,metabolism in the skin,skin,readily metabolized in the skin to form potent androgenic steroids
"C[C@]12CCC(=O)C[C@@H]1CC[C@@H]1[C@@H]2CC[C@]2(C)[C@@H](O)CC[C@@H]12 [DHT, dihydrotestosterone]",sebaceous gland growth and pigmentation of flank organ,[4],unilateral stimulation of sebaceous gland growth and pigmentation
"C[C@]12CCC(=O)C=C1CC[C@@H]1[C@@H]2CC[C@]2(C)C(=O)CC[C@@H]12 [androstenedione, Δ^4 -androstenedione]",sebaceous gland growth and pigmentation of flank organ,[4],unilateral stimulation of sebaceous gland growth and pigmentation
C[C@]12CC[C@@H](O)C[C@@H]1CC[C@@H]1[C@@H]2CC[C@]2(C)C(=O)CC[C@@H]12 [androsterone],sebaceous gland growth and pigmentation of flank organ,[4],did not cause flank organ growth or increased pigmentation
O=C(OOC(=O)c1ccccc1)c1ccccc1 [benzoyl peroxide],skin irritation and peeling,[1],irritates the skin and causes the skin to peel
C[C@]12CC[C@H](O)C[C@@H]1CC[C@@H]1[C@@H]2CC[C@]2(C)C(=O)CC[C@@H]12 [epiandrosterone],sebaceous gland growth and pigmentation of flank organ,[4],did not cause flank organ growth or increased pigmentation
C[C@]12CCC(=O)C=C1CC[C@@H]1[C@@H]2CC[C@@]2(C)[C@H]1CC[C@]2(C)O [methyltestosterone],sebaceous gland growth and pigmentation of flank organ,[4],unilateral stimulation of sebaceous gland growth and pigmentation
"CC(=O)[C@H]1CC[C@H]2[C@@H]3CC=C4C[C@@H](O)CC[C@]4(C)[C@H]3CC[C@]12C [pregnenolone, Δ^5-pregnene-3β-ol-20-one]",inhibition of 3βHSD for DHA (percentage of total Δ^4 -3-keto product formed in absence of inhibitor),[5],91-92%
same,"total metabolites converted from 1,2-^3 H-DHA, treated versus control","[6]; DHA-stimulated, 1 hour after intracardial ^3 H-DHA (5 μCi)",Significant differences (P<0.01)
same,"formation of testosterone, DHT and androstanediol, control versus treated",[6]; DPM/mg tissue in FIG. 2,"Control hamsters, not treated with inhibitor, show greater formation of testosterone, DHT and androstanediol"
same,patients with reduction of oiliness,"acne vulgaris; 1% pregnenolone in isopropanol containing 1% glycerol, twice daily, twelve weeks, 2 of 15 patients",13%
same,patients with no change in lesions or oiliness,acne vulgaris; [8],26%
same,patients with slight reduction of the number of lesions and a reduction in the oiliness of the skin,acne vulgaris; [8],26%
same,"patients with definite improvement, with reduction in the size and number of lesions","acne vulgaris; 1% pregnenolone in isopropanol containing 1% glycerol, twice daily, twelve weeks, 5 of 15 patients",33%
same,beneficial effect in acne; prevention of new lesions,"acne vulgaris; conclusion of the trial, continued use","beneficial effect in the treatment of acne, and that continued use of pregnenolone prevents the development of new lesions"
same,irritation or discomfort caused by topical application,"acne vulgaris; human, in vivo",no complaint of irritation or discomfort
same,efficacy and acceptability compared with previous medications (patients' claims),acne vulgaris; patients who had used other medications previously,more effective and more acceptable
same,solubility in alcohols,"[7]; alcohols, such as isopropanol or mixtures with longer (C4 -C10) alkane or alkene chains",soluble
same,solubility in water,[7]; water,insoluble in water
same,androgenic / hormonal activity,[3],no known hormonal activity of its own
CC(=O)[C@H]1CC[C@H]2[C@@H]3CCC4=CC(=O)CC[C@]4(C)[C@H]3CC[C@]12C [progesterone],sebaceous gland growth and pigmentation of flank organ,[4],did not cause flank organ growth or increased pigmentation
CC1=C(/C=C/C(C)=C/C=C/C(C)=C/C(=O)O)C(C)(C)CCC1 [retinoic acid],skin irritation and peeling,[1],irritates the skin and causes the skin to peel
C[C@]12CC[C@H]3[C@@H](CCC4=CC(=O)CC[C@@]43C)[C@@H]1CC[C@@H]2O [testosterone],sebaceous gland growth and pigmentation of flank organ,[4],unilateral stimulation of sebaceous gland growth and pigmentation
